IC50 data for two molecules are collected here from patent publication US20050090559A1, “Heterocyclically-substituted pentanol derivatives, process for their production and their use as anti-inflammatory agents” (priority 2003, published 2005).

SMILES strings stand for the structures.

For this assay, the target named is T1, glucocorticoid receptor (GR) (Homo sapiens, UniProt P04150).
T1 construct: made in house; host or cells: Sf9 cells infected with recombinant baculovirus (cytosol preparation)
T1 sequence (P04150 1-777): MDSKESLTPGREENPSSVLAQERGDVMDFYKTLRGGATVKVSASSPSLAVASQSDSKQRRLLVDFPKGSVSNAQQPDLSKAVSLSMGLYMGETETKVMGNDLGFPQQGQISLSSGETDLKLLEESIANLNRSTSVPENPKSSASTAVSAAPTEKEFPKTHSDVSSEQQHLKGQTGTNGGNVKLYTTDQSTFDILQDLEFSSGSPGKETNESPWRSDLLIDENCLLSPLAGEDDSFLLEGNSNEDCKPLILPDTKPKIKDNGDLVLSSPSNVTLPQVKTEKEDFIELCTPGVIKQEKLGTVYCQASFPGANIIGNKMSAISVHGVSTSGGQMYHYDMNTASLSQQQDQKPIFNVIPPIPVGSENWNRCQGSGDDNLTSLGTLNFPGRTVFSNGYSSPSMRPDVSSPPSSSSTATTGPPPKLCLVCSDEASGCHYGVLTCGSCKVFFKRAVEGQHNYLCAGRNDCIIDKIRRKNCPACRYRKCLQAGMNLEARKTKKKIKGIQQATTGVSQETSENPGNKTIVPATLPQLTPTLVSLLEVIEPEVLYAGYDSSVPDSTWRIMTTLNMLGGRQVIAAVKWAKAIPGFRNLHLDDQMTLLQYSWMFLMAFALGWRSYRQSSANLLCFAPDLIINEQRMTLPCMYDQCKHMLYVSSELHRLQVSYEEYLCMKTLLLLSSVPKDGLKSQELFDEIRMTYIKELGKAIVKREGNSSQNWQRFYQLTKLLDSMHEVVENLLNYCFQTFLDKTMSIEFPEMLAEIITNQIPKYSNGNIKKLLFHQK
Kind of assay: Binding to recombinantly produced glucocorticoid receptor, cytosol preparations of Sf9 cells, vs [3H]-dexamethasone. Conditions: recombinant GR. An excerpt:
The binding of the substances to the glucocorticoid receptor (GR) and other steroid hormone receptors (mineral corticoid receptor (MR), progesterone receptor (PR) and androgen receptor (AR)) is examined with the aid of recombinantly produced receptors. Cytosol preparations of Sf9 cells, which had been infected with recombinant baculoviruses, which code for the GR, are used for the binding studies. In comparison to reference substance [^3H]-dexamethasone, the substances show a high to very high affinity to GR.
Moreover, the compounds of formula (I) substituted by quinazolines, quinoxalines, cinnolines, indazoles, phthalazines, naphthyridines, benzothiazoles, dihydroindolones, dihydroisoindolones, benzimidazoles and indoles that are described here show a high selectivity for the glucocorticoid receptor.

As for `COc1ccc(F)cc1C(C)(C)CC(O)(CNc1cccc2nc(C)ncc12)C(F)(F)F` (centres unmarked) [Example 2, 4-(5-Fluoro-2-methoxyphenyl)-4-methyl-1-(2-methylquinazolin-5-ylamino)-2-(trifluoromethyl)-pentan-2-ol], the IC50 was 1.8 nM.
The result for `COc1cc(Cl)ccc1C(C)(C)CC(O)(CNc1ccnc2nc(C)ccc12)C(F)(F)F` (centres unmarked) [Example 52, 4-(4-Chloro-2-methoxyphenyl)-4-methyl-1-(2-methyl-1,8-naphthyridin-5-ylamino)-2-(trifluoromethyl)pentan-2-ol] reads 10 nM.

A word on the IC50: it is the concentration needed to halve the response being measured.
